Read-outs that look alike come from different tables or passages of the source.
Columns and labels:
[1] = molecular target: human TLR9 (Homo sapiens (Human), UniProt Q9NR96); assay: TLR9 inhibition reporter assay (HEK-Blue SEAP); conditions: read-out: TLR9 IC50;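 also: SEAP driven by an IFN-β minimal promoter with NF-κB and AP-1 sites, read after 22 h, compounds dosed 0.05 nM–50 µM, inhibition scaled between agonist plus DMSO and reference-inhibitor wells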
[2] = molecular target: human TLR8 (Homo sapiens (Human), UniProt Q9NR97); assay: TLR8 inhibition reporter assay (HEK-Blue SEAP); conditions: read-out: TLR8 IC50;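 also: SEAP driven by IFN-β minimal promoter carrying NF-κB and AP-1 sites, compounds dosed 0.05 nM to 50 µM for 22 h, inhibition scaled between agonist-plus-DMSO and reference-inhibitor wells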
human TLR8, sequence (Q9NR97 27-1041): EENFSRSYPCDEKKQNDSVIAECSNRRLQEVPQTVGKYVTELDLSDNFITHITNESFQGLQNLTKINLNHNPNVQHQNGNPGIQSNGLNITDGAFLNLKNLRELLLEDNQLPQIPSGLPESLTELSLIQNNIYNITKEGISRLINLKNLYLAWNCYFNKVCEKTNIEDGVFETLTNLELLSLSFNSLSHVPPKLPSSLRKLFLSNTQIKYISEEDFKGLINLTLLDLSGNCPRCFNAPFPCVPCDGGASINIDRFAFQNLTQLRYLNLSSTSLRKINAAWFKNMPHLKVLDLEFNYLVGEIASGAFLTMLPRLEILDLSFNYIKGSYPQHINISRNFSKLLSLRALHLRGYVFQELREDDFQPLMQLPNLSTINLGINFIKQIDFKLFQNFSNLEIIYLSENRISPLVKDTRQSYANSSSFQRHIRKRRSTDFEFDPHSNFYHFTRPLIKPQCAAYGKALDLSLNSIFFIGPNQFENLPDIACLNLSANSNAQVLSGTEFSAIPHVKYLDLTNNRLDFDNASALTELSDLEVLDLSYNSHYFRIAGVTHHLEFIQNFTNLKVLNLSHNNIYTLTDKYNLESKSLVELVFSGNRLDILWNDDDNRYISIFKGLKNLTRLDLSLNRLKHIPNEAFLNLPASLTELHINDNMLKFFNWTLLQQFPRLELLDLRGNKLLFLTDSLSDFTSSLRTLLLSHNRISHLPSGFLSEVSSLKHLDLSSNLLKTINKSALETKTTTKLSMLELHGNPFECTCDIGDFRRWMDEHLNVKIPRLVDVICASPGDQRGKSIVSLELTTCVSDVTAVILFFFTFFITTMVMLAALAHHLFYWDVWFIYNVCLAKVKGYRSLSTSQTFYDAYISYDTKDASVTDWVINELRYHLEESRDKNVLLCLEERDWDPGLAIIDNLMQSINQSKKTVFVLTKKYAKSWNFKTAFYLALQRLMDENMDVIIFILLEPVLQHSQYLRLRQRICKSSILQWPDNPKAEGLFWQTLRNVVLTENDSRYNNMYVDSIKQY

[3] = molecular target: human TLR7 (Homo sapiens (Human), UniProt Q9NYK1); assay: TLR7 inhibition reporter assay (HEK-Blue SEAP); type: cell-based
human TLR7, sequence (Q9NYK1 27-1049): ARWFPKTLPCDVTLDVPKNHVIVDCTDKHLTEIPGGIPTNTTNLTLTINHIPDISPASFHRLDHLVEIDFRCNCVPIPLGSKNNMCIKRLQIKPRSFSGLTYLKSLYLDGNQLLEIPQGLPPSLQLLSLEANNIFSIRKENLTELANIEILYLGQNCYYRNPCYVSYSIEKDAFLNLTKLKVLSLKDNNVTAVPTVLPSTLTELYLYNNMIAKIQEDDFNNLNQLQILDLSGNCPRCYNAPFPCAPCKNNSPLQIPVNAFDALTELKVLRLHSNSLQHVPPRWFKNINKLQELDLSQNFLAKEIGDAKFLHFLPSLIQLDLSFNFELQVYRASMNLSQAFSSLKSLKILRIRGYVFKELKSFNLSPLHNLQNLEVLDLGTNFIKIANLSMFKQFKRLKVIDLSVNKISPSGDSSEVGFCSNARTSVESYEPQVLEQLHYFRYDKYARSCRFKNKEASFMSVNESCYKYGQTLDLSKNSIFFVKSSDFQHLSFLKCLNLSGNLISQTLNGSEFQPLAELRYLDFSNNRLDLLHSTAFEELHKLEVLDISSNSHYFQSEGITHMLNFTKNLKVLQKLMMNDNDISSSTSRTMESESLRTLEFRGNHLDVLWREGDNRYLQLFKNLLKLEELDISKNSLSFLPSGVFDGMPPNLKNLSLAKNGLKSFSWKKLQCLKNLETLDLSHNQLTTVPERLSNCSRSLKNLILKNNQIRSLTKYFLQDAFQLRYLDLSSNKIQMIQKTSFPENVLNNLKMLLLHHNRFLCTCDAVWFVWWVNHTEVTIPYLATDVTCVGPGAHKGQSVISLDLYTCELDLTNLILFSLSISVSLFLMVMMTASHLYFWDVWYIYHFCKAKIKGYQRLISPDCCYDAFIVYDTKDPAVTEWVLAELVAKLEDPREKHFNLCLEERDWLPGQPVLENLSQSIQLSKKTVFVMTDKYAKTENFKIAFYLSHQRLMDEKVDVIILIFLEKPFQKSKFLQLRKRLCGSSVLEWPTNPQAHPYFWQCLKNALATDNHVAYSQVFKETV

[4] = HEK-Blue human TLR9 cells, ODN2006 5 nM
[5] = HEK-Blue human TLR8 cells, R848 15.9 μM
[6] = HEK-Blue human TLR7 cells, gardiquimod 7.5 μM
[7] = HEK-Blue cells overexpressing human TLR9, SEAP reporter, ODN2006 5 nM
[8] = HEK-Blue cells overexpressing human TLR8, SEAP reporter, R848 15.9 μM
[9] = HEK-Blue cells overexpressing human TLR7, SEAP reporter, gardiquimod 7.5 μM
[10] = HEK-Blue cells overexpressing human TLR9, ODN2006 5 nM stimulation, SEAP reporter
[11] = HEK-Blue cells overexpressing human TLR8, R848 15.9 μM stimulation, SEAP reporter
[12] = HEK-Blue cells overexpressing human TLR7, gardiquimod 7.5 μM stimulation, SEAP reporter

human TLR9, sequence (Q9NR96 26-1032): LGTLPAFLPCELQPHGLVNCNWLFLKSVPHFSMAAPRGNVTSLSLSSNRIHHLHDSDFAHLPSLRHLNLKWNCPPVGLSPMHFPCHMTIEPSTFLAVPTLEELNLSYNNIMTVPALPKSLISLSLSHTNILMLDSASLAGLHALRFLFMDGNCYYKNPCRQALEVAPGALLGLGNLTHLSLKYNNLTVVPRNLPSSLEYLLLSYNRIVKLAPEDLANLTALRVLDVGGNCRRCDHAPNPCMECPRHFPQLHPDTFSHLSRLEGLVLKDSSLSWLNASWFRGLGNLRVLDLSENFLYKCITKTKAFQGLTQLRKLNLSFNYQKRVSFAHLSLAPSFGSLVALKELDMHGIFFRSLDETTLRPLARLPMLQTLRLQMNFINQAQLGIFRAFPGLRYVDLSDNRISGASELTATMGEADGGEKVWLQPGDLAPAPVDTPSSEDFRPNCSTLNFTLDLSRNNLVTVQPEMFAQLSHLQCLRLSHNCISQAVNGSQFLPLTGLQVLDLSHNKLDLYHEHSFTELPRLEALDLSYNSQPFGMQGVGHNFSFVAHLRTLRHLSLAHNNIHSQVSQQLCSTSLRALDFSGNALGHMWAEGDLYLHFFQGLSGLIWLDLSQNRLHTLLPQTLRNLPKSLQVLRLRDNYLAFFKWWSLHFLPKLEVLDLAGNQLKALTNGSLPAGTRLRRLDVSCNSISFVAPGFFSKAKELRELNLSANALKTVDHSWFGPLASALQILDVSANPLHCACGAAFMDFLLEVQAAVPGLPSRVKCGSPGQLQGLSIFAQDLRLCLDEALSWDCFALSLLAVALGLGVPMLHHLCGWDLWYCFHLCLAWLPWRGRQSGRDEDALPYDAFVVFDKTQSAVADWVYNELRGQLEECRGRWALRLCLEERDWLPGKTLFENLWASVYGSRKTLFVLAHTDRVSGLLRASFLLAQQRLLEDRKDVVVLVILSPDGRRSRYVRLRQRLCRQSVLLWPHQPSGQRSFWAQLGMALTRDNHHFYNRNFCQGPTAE

COc1cc(-c2[nH]c3ccc(C4CCC(N5CCC6(COC6)C5)CC4)nc3c2C(C)C)cn2ncnc12 (stereo not drawn) [Example 1073]
IC50 [1, 4]: 5830 nM
IC50 [2, 5]: 28 nM
IC50 [3, 6]: 4.6 nM

COc1cc(-c2[nH]c3ccc(C4CC(N(C)CCS(C)(=O)=O)C4)nc3c2C(C)C)cn2ncnc12 (stereo not drawn) [Example 642]
IC50 [1, 7]: 18100 nM
IC50 [2, 8]: 26 nM
IC50 [3, 9]: 14 nM

Cc1cc(-c2[nH]c3cc(C)c(C4CCNCC4)nc3c2C(C)C)cc(C)n1 [Example 522]
IC50 [1, 7]: 144 nM
IC50 [2, 8]: 495 nM
IC50 [3, 9]: 2.6 nM

Cc1c(-c2[nH]c3ccc(N4CC5(CN(C)C5)C4)nc3c2C(C)C)cn2ncnc2c1C [Example 741, 6-(3-isopropyl-5-(6-methyl-2,6-diazaspiro[3.3]heptan-2-yl)-1H-pyrrolo[3,2-b]pyridin-2-yl)-7,8-dimethyl-[1,2,4]triazolo[1,5-a]pyridine]
IC50 [1, 7]: 3030 nM
IC50 [2, 8]: 6.5 nM
IC50 [3, 9]: 1.9 nM

Cc1c(-c2[nH]c3ccc(N4C[C@H](C)N(C(=O)CCN(C)C)C[C@@H]4C)nc3c2C(C)C)cn2ncnc2c1C [Example 789]
IC50 [1, 7]: 13300 nM
IC50 [2, 8]: 3.7 nM
IC50 [3, 9]: 3.2 nM

Cc1c(-c2[nH]c3ccc(N4CC(O)C4)nc3c2C(C)C)cn2ncnc2c1C [Example 38]
IC50 [1, 10]: 44400 nM
IC50 [2, 11]: 5.2 nM
IC50 [3, 12]: 21 nM

CC(C)c1c(-c2cc(CO)c3ncnn3c2)[nH]c2ccc(C3CCC(NC4COC4)CC3)nc12 (stereo not drawn) [Example 220]
IC50 [1, 10]: 1020 nM
IC50 [2, 11]: 6.1 nM
IC50 [3, 12]: 6.7 nM

COc1cc(-c2[nH]c3ccc(C4CC(NC(=O)CN(C)C)C4)nc3c2C(C)C)cn2ncnc12 (stereo not drawn) [Example 619]
IC50 [1, 7]: 865 nM
IC50 [2, 8]: 3 nM
IC50 [3, 9]: 0.43 nM

Cc1c(-c2[nH]c3ccc(N4CC(N5CCS(=O)(=O)CC5)C4)nc3c2C(C)C)cn2ncnc2c1C [Example 41]
IC50 [1, 10]: > 50000 nM
IC50 [2, 11]: 177 nM
IC50 [3, 12]: 264 nM

Cc1c(-c2[nH]c3ccc(C4CCC(N(C5CC5)C5COC5)CC4)nc3c2C(C)C)cn2cnnc2c1C (stereo not drawn) [Example 237]
IC50 [1, 10]: 18200 nM
IC50 [2, 11]: 19 nM
IC50 [3, 12]: 20 nM

Cc1c(-c2[nH]c3ccc(C4CCC(N(C)CC(N)=O)CC4)nc3c2C(C)C)cn2ncnc2c1C (stereo not drawn) [Example 501]
IC50 [1, 7]: 9550 nM
IC50 [2, 8]: 16 nM
IC50 [3, 9]: 6.3 nM

Cc1c(-c2[nH]c3ccc(C4CCC(N5CC6(CCS6(=O)=O)C5)CC4)nc3c2C(C)C)cn2ncnc2c1C (stereo not drawn) [Example 1077]
IC50 [1, 4]: 21800 nM
IC50 [2, 5]: 38 nM
IC50 [3, 6]: 18 nM

Cc1c(-c2[nH]c3ccc(N4C[C@H](C)N(CCCS(C)(=O)=O)C[C@@H]4C)nc3c2C(C)C)cn2ncnc2c1C [Example 795]
IC50 [1, 4]: > 50000 nM
IC50 [2, 5]: 8.1 nM
IC50 [3, 6]: 12 nM

COc1cc(-c2[nH]c3ccc(C4CCC(N(C)C5COC5)CC4)nc3c2C(C)C)cn2ncnc12 (stereo not drawn) [Example 240]
IC50 [1, 10]: 5080 nM
IC50 [2, 11]: 16 nM
IC50 [3, 12]: 5.4 nM

COc1cc(-c2[nH]c3ccc(CCC4CN(CC5(C)COC5)C4)nc3c2C(C)C)cn2ncnc12 [Example 706]
IC50 [1, 7]: 1020 nM
IC50 [2, 8]: 18 nM
IC50 [3, 9]: 8.5 nM

Cc1c(-c2[nH]c3ccc(C4CCC(N5CCC(F)C5)CC4)nc3c2C(C)C)cn2ncnc2c1C (stereo not drawn) [Example 1062]
IC50 [1, 4]: 10200 nM
IC50 [2, 5]: 25 nM
IC50 [3, 6]: 13 nM

Cc1cc(-c2[nH]c3ccc(C4CCC(N(C)C5COC5)CC4)nc3c2C(C)C)cn(C)c1=O (stereo not drawn) [Example 250]
IC50 [1, 10]: 13700 nM
IC50 [2, 11]: 57 nM
IC50 [3, 12]: 26 nM

COc1cc(-c2[nH]c3ccc(C4CCC(N5CCOCC5)CC4)nc3c2C(C)C)cn2ncnc12 (stereo not drawn) [Example 1071]
IC50 [1, 4]: 5950 nM
IC50 [2, 5]: 25 nM
IC50 [3, 6]: 3.7 nM

CCN(CC)CC(=O)N1C[C@H](C)N(c2ccc3[nH]c(-c4cn5ncnc5c(C)c4C)c(C(C)C)c3n2)C[C@H]1C [Example 895]
IC50 [1, 4]: 7930 nM
IC50 [2, 5]: 1.1 nM
IC50 [3, 6]: 0.74 nM

CC(C)c1c(-c2cc(CO)c3ncnn3c2)[nH]c2ccc(C3CCC(N(C)C4COC4)CC3)nc12 (stereo not drawn) [Example 246]
IC50 [1, 10]: 4280 nM
IC50 [2, 11]: 2.6 nM
IC50 [3, 12]: 1.9 nM

Cc1c(-c2[nH]c3ccc(N4C[C@@H](C)N(C(=O)CN5CC6(COC6)C5)[C@H](C)C4)nc3c2C(C)C)cn2ncnc2c1C [Example 929]
IC50 [1, 4]: 5090 nM
IC50 [2, 5]: 3.9 nM
IC50 [3, 6]: 2.6 nM

Cc1c(-c2[nH]c3ccc(C4CCC(N5CC6(CCO6)C5)CC4)nc3c2C(C)C)cn2ncnc2c1C (stereo not drawn) [Example 1057]
IC50 [1, 4]: 2700 nM
IC50 [2, 5]: 1.7 nM
IC50 [3, 6]: 0.81 nM

Cc1c(-c2[nH]c3ccc(N4CCC(N(C)Cc5cn(C)nn5)CC4)nc3c2C(C)C)cn2ncnc2c1C [Example 68]
IC50 [1, 10]: 6300 nM
IC50 [2, 11]: 0.79 nM
IC50 [3, 12]: 1.4 nM

Cc1c(-c2[nH]c3ccc(C4CCC(N(CC#N)CCS(C)(=O)=O)CC4)nc3c2C(C)C)cn2ncnc2c1C (stereo not drawn) [Example 458]
IC50 [1, 7]: 9840 nM
IC50 [2, 8]: 10 nM
IC50 [3, 9]: 5 nM

COc1cc(-c2[nH]c3cc(F)c(C4CCN(C(=O)CN(C)C)CC4)nc3c2C(C)C)cn2ncnc12 [Example 577]
IC50 [1, 7]: 1880 nM
IC50 [2, 8]: 7.4 nM
IC50 [3, 9]: 0.69 nM

Cc1c(-c2[nH]c3ccc(C4CC5(C4)CN(C(=O)CCN(C)C)C5)nc3c2C(C)C)cn2ncnc2c1C [Example 746, 1-(6-(2-(7,8-dimethyl-[1,2,4]triazolo[1,5-a]pyridin-6-yl)-3-isopropyl-1H-pyrrolo[3,2-b]pyridin-5-yl)-2-azaspiro[3.3]heptan-2-yl)-3-(dimethylamino)propan-1-one]
IC50 [1, 7]: 3110 nM
IC50 [2, 8]: 10 nM
IC50 [3, 9]: 1.1 nM

COc1cc(-c2[nH]c3cc(C)c(C4CCC(NCC(F)F)CC4)nc3c2C(C)C)cn2ncnc12 (stereo not drawn) [Example 324]
IC50 [1, 10]: 20500 nM
IC50 [2, 11]: 240 nM
IC50 [3, 12]: 6.6 nM

COc1cc(-c2[nH]c3cc(C)c(C4CCN(C5COC5)CC4)nc3c2C(C)C)cn2ncnc12 [Example 579]
IC50 [1, 7]: 1840 nM
IC50 [2, 8]: 79 nM
IC50 [3, 9]: 0.39 nM

COc1cc(-c2[nH]c3cc(F)c(C4CCN(CCS(C)(=O)=O)CC4)nc3c2C(C)C)cn2ncnc12 [Example 573]
IC50 [1, 7]: 3230 nM
IC50 [2, 8]: 9.1 nM
IC50 [3, 9]: 0.99 nM

Cc1c(-c2[nH]c3ccc(NCCNC(=O)CN(C)C)nc3c2C(C)C)cn2ncnc2c1C [Example 1002]
IC50 [1, 4]: 1100 nM
IC50 [2, 5]: 4.6 nM
IC50 [3, 6]: 10 nM

CC(C)c1c(-c2cn(CC#N)c3ncccc23)[nH]c2ccc(C3CCC(NCC(=O)N(C)C)CC3)nc12 (stereo not drawn) [Example 272]
IC50 [1, 10]: 398 nM
IC50 [2, 11]: 50 nM
IC50 [3, 12]: 76 nM

COc1cc(-c2[nH]c3ccc(C4CN(C)CCO4)nc3c2C(C)C)cn2ncnc12 (stereo not drawn) [Example 661]
IC50 [1, 7]: 13900 nM
IC50 [2, 8]: 5.5 nM
IC50 [3, 9]: 2.3 nM

COc1cc(-c2[nH]c3ccc(C4CCC(N(CC#N)CC#N)C4)nc3c2C(C)C)cn2ncnc12 (stereo not drawn) [Example 730]
IC50 [1, 7]: 10500 nM
IC50 [2, 8]: 23 nM
IC50 [3, 9]: 3.3 nM

COc1ccc2[nH]c(-c3cc(OC)c4ncnn4c3)c(C(C)C)c2n1 [Example 601, 6-(3-isopropyl-5-methoxy-1H-pyrrolo[3,2-b]pyridin-2-yl)-8-methoxy-[1,2,4]triazolo[1,5-a] pyridine]
IC50 [1, 7]: > 50000 nM
IC50 [2, 8]: 46 nM
IC50 [3, 9]: 46 nM

Cc1c(-c2[nH]c3ccc(N4[C@@H]5CC[C@H]4CN(C(=O)CCN(C)C)C5)nc3c2C(C)C)cn2ncnc2c1C [Example 913]
IC50 [1, 4]: 8840 nM
IC50 [2, 5]: 1.8 nM
IC50 [3, 6]: 1 nM

Reference: patent US10544143B2, “4-azaindole compounds” (BRISTOL-MYERS SQUIBB COMPANY, priority 2017, dated 2020)
